Data taken from article PMC11061835, “Elucidating the Mechanism of Metabolism of Cannabichromene by Human Cytochrome P450s” (Journal of Natural Products, 2024).

Tests used:
[1] = system: BV2 microglial cells, stimulated with lipopolysaccharide (LPS); experiment: TNFα ELISA in LPS-stimulated BV2 cells; type: cell-based, mouse; settings: 0.1, 1.0, 2.5, 5.0 μM
Description: (§1) BV2 cells were a gift from Dr. Bob McCusker, University of Illinois. They were cultured and maintained at 37 °C in a humidified atmosphere of 95% air and 5% CO2 in high-glucose Dulbecco’s modified Eagle’s (DMEM) medium (Cat No. 10-013-CV, Corning Life Sciences), supplemented with 5% heat-inactivated fetal bovine serum (FBS), streptomycin (100 μg/mL), and penicillin (100 units/mL). Stocks of all the minor cannabinoids were made in ethanol and stored at −80 °C and diluted as required before cell treatment. A final concentration of ethanol was maintained at 0.1% in the cell culture experiments.
(§2) BV-2 cells were plated at a density of 50 000 cells/well in a 24-well plate at 37 °C under controlled conditions. Cells were pretreated with the minor cannabinoids at various concentrations (0.1, 1.0, 2.5, 5.0 μM) for 4 h and then stimulated with LPS for 24 h. The culture medium was removed and saved for the determination of nitric oxide production through Cayman’s Griess assay. IL-6, TNFα, and Arginase 1 production was also determined utilizing collected medium. For the Greiss assay, in a 96-well plate, 100 μL of culture medium was used, and 50 μL of both Greiss reagent-1 and Greiss reagent-2 was added and incubated for 10 min. The absorbance was measured at 540 nm using a plate reader (SpectraMax iD5). The quantification was done using a calibration curve that was generated using the sodium nitrite standard obtained from Cayman Chemicals.
(§3) BV-2 cells were pretreated with the minor cannabinoids as described previously for 4 h in serum media (reduced to 5% FBS). Cells were stimulated with LPS (25 ng/mL in growth media) and allowed to incubate for 24 h. The culture medium was collected, and the concentrations of IL-6 (Cayman Chemicals), TNFα (ThermoFisher Scientific), and arginase 1 (ThermoFisher Scientific) cytokine expression were determined using specific monoclonal antibodies by ELISA kits as per manufacturer’s instructions.

[2] = system: BV2 microglial cells, stimulated with lipopolysaccharide (LPS); experiment: IL-6 ELISA in LPS-stimulated BV2 cells; type: cell-based, mouse; settings: for effect on IL-6 levels: 0.1, 1.0, 2.5, 5.0 μM, LPS-stimulated
Description: as §1, §2, §3

[3] = system: BV2 microglial cells, stimulated with lipopolysaccharide (LPS); experiment: Nitric oxide determination (Griess assay) in LPS-stimulated BV2 cells; type: cell-based, mouse; settings: for effect on NO release/production: 0.1, 1.0, 2.5, 5.0 μM, vs cells treated with LPS only
Description: as §1
First, cell viability of BV2 cells was assessed after treatment with cannabinoids, at various concentrations (0.1, 1.0, 2.5, 5.0 μM), utilizing Cayman’s MTT assay. […] Once viability was determined, we measured the production of pro-inflammatory markers such as nitric oxide (NO), interleukin 6 (IL-6), tumor necrosis factor alpha (TNFα), and arginase 1 (Arg1) after BV2 cells were treated with minor cannabinoids and then stimulated with lipopolysaccharide (LPS) to evoke an inflammatory response.
as §2

[4] = In vivo metabolism of CBC, mouse blood plasma (LC-MS/MS); set-up: species or system mice; settings: mice, CBC 20 mg/kg IV or IP, plasma at 0.5 and 2 h
Description: CBC was dissolved in ethanol, and an aliquot was then mixed with Tween-80. Ethanol was removed by evaporation. The mixture was then reconstituted with PBS to a 6% final concentration of Tween-80. C 57BL/6J female mice, age 8–10 weeks, were injected with 20 mg/kg CBC or vehicle intravenously (IV, n = 3) via the tail vein or intraperitoneally (IP, n = 3). Blood samples were collected terminally by cardiac puncture into heparin-coated syringes at 0.5 and 2 h after CBC treatment and transferred into tubes. The tubes were then centrifuged, and plasma samples were removed and stored at −80 °C.
200 μL of blood plasma from each sample was taken into a glass tube, and 500 μL of extraction solvent (hexane:ethyl acetate 80:20 v/v) was added. The remaining extraction steps are similar to those used for CBC metabolite extraction from CYPs as mentioned earlier.
Samples were analyzed with the 5500 QTRAP LC/MS/MS system (Sciex, Framingham, MA) in the Metabolomics Lab of Roy J. Carver Biotechnology Center, University of Illinois at Urbana–Champaign. Software Analyst 1.7.1 was used for data acquisition and analysis. The 1200 series HPLC system (Agilent Technologies, Santa Clara, CA) includes a degasser, an autosampler, and a binary pump. The LC separation was performed on a Phenomenex Gemini C6-phenyl column (2 × 100 mm, 3 μm) with mobile phase A (0.1% formic acid in water) and mobile phase B (0.1% formic acid in acetonitrile). The flow rate was 0.2 mL/min. The linear gradient was as follows: 0–2 min, 95% A; 10 min, 50% A; 20–25 min, 0% A; 25.1–31 min, 95% A. The autosampler was set at 10 °C. The injection volume was 5 μL. Mass spectra were acquired under positive electrospray ionization (ESI) with the ion spray voltage of +5000 V. The source temperature was 400 °C. The curtain gas, ion source gas 1, and ion source gas 2 were 325, 65, and 55 psi, respectively. Multiple reaction monitoring (MRM) was used for quantitation: CBC m/z 315.1 → m/z 135.0; 1-acetoxy-6′,7′-dihydroxy-CBC (JM-I-73) m/z 349.1→ m/z 193.0; 1″-hydroxy-CBC (JM-I-66) m/z 331.1→ m/z 275.1; 6′,7′-epoxy-CBC (JM-I-27) m/z 331.1→ m/z 193.0; 7′,10′-ene-6′-hydroxy-CBC (JM-I-30) m/z 331.1→ m/z 193.0; 8′-hydroxy-CBC (JM-I-32) […]→ m/z 77.0. Internal standard EET-EA-d11 was monitored at m/z 375.2→ m/z 357.1.

[5] = target: CYP3A4 (Homo sapiens, UniProt P08684); experiment: CBC metabolism by CYP3A4; type: in vitro ADME; set-up: His-tag; made in house; host or cells: E. coli DH-5α with pTGro7 plasmid (CYP)
Chain of CYP3A4 (P08684 whole entry): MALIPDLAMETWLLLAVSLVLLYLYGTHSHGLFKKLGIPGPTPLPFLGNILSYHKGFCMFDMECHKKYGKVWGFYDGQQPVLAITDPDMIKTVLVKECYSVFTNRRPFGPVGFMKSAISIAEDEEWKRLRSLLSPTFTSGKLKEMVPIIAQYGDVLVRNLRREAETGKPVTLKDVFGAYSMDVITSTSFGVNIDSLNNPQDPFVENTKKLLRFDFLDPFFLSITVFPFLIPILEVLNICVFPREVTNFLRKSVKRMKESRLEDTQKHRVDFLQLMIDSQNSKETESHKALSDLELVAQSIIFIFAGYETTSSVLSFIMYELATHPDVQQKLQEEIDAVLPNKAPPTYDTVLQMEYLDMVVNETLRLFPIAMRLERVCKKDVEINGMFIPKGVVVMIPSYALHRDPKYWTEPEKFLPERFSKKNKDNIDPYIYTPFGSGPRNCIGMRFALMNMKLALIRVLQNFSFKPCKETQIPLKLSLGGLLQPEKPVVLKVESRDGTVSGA
Chain of CYP3A4 (P16435 whole entry partner): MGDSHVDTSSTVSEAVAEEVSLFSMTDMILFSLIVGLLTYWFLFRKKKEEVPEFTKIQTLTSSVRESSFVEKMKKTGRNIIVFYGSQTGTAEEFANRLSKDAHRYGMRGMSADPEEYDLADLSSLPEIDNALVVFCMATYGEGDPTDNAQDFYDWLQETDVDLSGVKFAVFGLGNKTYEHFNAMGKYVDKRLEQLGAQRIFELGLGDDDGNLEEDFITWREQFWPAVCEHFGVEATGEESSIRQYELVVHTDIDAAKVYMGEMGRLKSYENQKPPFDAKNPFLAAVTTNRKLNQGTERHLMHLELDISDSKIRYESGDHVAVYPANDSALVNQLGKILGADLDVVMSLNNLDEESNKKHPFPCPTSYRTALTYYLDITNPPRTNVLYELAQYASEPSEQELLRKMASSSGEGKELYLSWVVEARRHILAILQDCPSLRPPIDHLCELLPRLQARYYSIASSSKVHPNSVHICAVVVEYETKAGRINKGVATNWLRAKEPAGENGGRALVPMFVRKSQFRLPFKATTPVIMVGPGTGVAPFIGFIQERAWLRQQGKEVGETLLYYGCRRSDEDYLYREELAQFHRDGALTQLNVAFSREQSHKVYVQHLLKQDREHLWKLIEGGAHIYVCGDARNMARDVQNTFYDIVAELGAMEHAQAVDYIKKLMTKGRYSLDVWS
Description: (§4) To study the kinetics of CBC metabolism, concentration dependent metabolism of CBC was carried out in the presence of various CYPs using the following procedure. CYP2J2, CYP2C8, CYP2D6, CYP2C9, and CYP3A4 (final concentration 0.5 μM) were initially dissolved in lipid containing POPC:POPS (8:2 v/v) followed by addition of CPR (final concentration 0.6 μM) in 0.1 M potassium phosphate buffer (pH 7.4). CBC (5–80 μM) was added and incubated at 37 °C for 10 min. The reaction was triggered by NADPH and extracted using the exact sample protocol as mentioned in the HLM section.
(§5) Samples were analyzed with the 5500 QTRAP LC/MS/MS system (Sciex, Framingham, MA) in the Metabolomics Lab of Roy J. Carver Biotechnology Center, University of Illinois at Urbana–Champaign. Software Analyst 1.7.1 was used for data acquisition and analysis. The 1200 series HPLC system (Agilent Technologies, Santa Clara, CA) includes a degasser, an autosampler, and a binary pump. […] Multiple reaction monitoring (MRM) was used for quantitation: CBC m/z 315.1 → m/z 135.0; 1-acetoxy-6′,7′-dihydroxy-CBC (JM-I-73) m/z 349.1→ m/z 193.0; 1″-hydroxy-CBC (JM-I-66) m/z 331.1→ m/z 275.1; 6′,7′-epoxy-CBC (JM-I-27) m/z 331.1→ m/z 193.0; 7′,10′-ene-6′-hydroxy-CBC (JM-I-30) m/z 331.1→ m/z 193.0; 8′-hydroxy-CBC (JM-I-32) […]→ m/z 77.0. Internal standard EET-EA-d11 was monitored at m/z 375.2→ m/z 357.1.

[6] = system: BV2 microglial cells, stimulated with lipopolysaccharide (LPS); experiment: Arginase 1 ELISA in LPS-stimulated BV2 cells; type: cell-based, mouse; settings: 0.1, 1.0, 2.5, 5.0 μM
Description: as §1
as §2, with “For the Greiss assay, in a 96-well plate, 100 μL of culture medium was used, and 50 μL of both Greiss reagent-1 and Greiss reagent-2 was added and incubated for 10 min.” left out, “Chemicals. […]” for “Chemicals.”

[7] = target: CYP2D6 (Homo sapiens, UniProt P10635); experiment: CBC metabolism by CYP2D6; type: in vitro ADME; set-up: His-tag; made in house; host or cells: E. coli DH-5α with pTGro7 plasmid (CYP)
Chain of CYP2D6 (P10635 whole entry): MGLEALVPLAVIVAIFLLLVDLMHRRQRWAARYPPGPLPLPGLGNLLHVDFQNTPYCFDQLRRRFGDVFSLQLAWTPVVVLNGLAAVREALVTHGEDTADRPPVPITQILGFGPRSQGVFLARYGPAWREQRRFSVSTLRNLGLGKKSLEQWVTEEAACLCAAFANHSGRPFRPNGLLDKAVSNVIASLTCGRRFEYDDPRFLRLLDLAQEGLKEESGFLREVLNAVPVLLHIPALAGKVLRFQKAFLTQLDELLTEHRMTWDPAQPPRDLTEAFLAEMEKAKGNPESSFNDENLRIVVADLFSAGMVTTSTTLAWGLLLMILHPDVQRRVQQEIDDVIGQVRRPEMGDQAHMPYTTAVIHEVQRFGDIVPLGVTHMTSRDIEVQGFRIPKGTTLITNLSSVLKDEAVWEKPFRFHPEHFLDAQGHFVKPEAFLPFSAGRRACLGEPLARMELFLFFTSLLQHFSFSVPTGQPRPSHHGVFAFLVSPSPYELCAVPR
Chain of CYP2D6 (P16435 whole entry partner): as the sequence (P16435 whole entry partner) above
Description: as §4, §5

[8] = system: recombinant CYPs: CYP2J2, CYP2C8, CYP2C9, CYP2D6, and CYP3A4; experiment: CBC metabolism by recombinant CYPs (all five); type: in vitro ADME, human; settings: lipid-constituted system with CPR, NADPH
Description: as §4, §5

[9] = system: TRPV2; set-up: method as in PMID 30697147; settings: read-out: agonism toward TRPV2; cited from earlier work
[10] = system: TRPV1; set-up: method as in PMID 30697147; settings: read-out: agonism toward TRPV1; cited from earlier work

Structure (SMILES) | effect on TNFα production [1] | effect on IL-6 levels [2] | effect on NO release/production [3] | detection as product of CBC metabolism in mouse plasma [4] | formation as CBC metabolite [5] | effect on Arg-1 production [6] | EC50 [9] [µM] | EC50 [10] [µM] | other results
C=C(C)C(O)CCC1(C)C=Cc2c(O)cc(CCCCC)cc2O1 (centres unmarked) [7′,10′-ene-6′-hydroxy-CBC] | Concentration dependent reduction | Concentration dependent reduction | concentration-dependent reduction |  |  |  |  |  | 
CCCCC(O)c1cc(O)c2c(c1)OC(C)(CCC=C(C)C)C=C2 (centres unmarked) [1″-hydroxy-CBC] | Concentration dependent reduction | Concentration dependent reduction |  | not detected | not detected | increases in a concentration dependent manner |  |  | detection as CBC metabolite [7]: not detected
CCCCCc1cc(O)c2c(c1)OC(C)(CCC1OC1(C)C)C=C2 (centres unmarked) [6′,7′-epoxy-CBC] |  |  |  | detected | exclusively produces | increases in a concentration dependent manner |  |  | 
CCCCCc1cc(O)c2c(c1)OC(C)(CCC(O)C(C)(C)O)C=C2 (centres unmarked) [6′,7′-dihydroxy-CBC] | Concentration dependent reduction | Concentration dependent reduction | concentration-dependent reduction | detected |  |  |  |  | detection as CBC metabolite in the presence of recombinant CYPs [8]: not detected; reduction of IL-6 level ([2]; 5 μM, LPS-stimulated BV2 cells): ~50%; reduction of NO level ([3]; 5 μM, LPS-stimulated BV2 cells): ~50%
CCCCCc1cc(O)c(C/C=C(\C)CCC=C(C)C)c(O)c1 [CBG, cannabigerol] |  |  |  |  |  |  | ~73 | ~33 | 
C=C(C)[C@@H]1CCC(C)=C[C@H]1c1c(O)cc(CCCCC)cc1O [CBD, cannabidiol] |  |  |  |  |  |  | ~40 | ~40 | 
